Experimental data as given in patent US10167262B2, “Herbicidal substituted 3-arylpyrazoles” (FMC CORPORATION, priority 2014, dated 2019).

Assays:
Format in all cases: in vivo
wild oat (Avena fatua) = assay: Test C postemergence greenhouse test, plant response rating 0-100; settings: for Plant response rating, Oat, Wild: 250 g ai/ha, scale 0 to 100
Procedure, shortened: (§1)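 Potted in peat/vermiculite mix; postemergence application at 1–4 leaves (2–18 cm); greenhouse 13–15 d; visual score 0–100 relative to untreated plants; dash = no test result.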

[1] = system: chickweed (common chickweed, Stellaria media); assay: as above; settings: for Plant response rating, Chickweed: 250 g ai/ha, scale 0 to 100
Procedure, shortened: as §1

kochia (Kochia scoparia) = assay: as above; settings: for Plant response rating, Kochia: 250 g ai/ha, scale 0 to 100
Procedure, shortened: as §1

[2] = system: morningglory (Ipomoea coccinea); assay: Test C pre-/postemergence greenhouse test, plant response rating 0-100
Procedure, shortened: (§2)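 Visual 0–100 control scores, taken 13 to 15 days post-application in a greenhouse, reflect treatment preemergence (seed in loam soil with sand) or postemergence (2–18 cm plants in peat moss, vermiculite medium). A dash marks no result.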

[3] = system: giant foxtail (Setaria faberii); assay: as above
Procedure, shortened: as §2

soybean (Glycine max) = assay: as above
Procedure, shortened: as §2

[4] = system: lambsquarters (Chenopodium album); assay: as above
Procedure, shortened: as §2

[5] = system: galium (catchweed bedstraw, Galium aparine); assay: as above
Procedure, shortened: as §2

[6] = system: johnsongrass (Sorghum halepense); assay: as above
Procedure, shortened: as §2

[7] = system: winter wheat (Triticum aestivum); assay: as above
Procedure, shortened: as §2

[8] = system: blackgrass (Alopecurus myosuroides); assay: as above;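 note: 0 is no effect and 100 is complete control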
Procedure, shortened: as §2

[9] = system: yellow nutsedge (Cyperus esculentus); assay: as above
Procedure, shortened: as §2

[10] = system: large (Lg) crabgrass (Digitaria sanguinalis); assay: as above
Procedure, shortened: as §2

[11] = Postemergence, 250 g ai/ha, scale 0 to 100

O=C(c1cncc(F)c1)c1c[nH]nc1-c1cc(Cl)cc(Cl)c1 [Compound 19]
45: Plant response rating, Galium [5, 11]
15: Plant response rating (0 to 100), Lambsquarters ([4]; Postemergence, 125 g ai/ha) | Plant response rating (0 to 100), Galium ([5]; Postemergence, 31 g ai/ha)
5: Plant response rating (0 to 100), Foxtail, Giant ([3]; Postemergence, 125 g ai/ha) | Plant response rating, Foxtail, Giant [3, 11] | Plant response rating (0 to 100), Nutsedge, Yellow ([9]; Postemergence, 62 g ai/ha) | Plant response rating (0 to 100), Nutsedge, Yellow ([9]; Postemergence, 125 g ai/ha) | Plant response rating, Nutsedge, Yellow [9, 11]
85: Plant response rating (0 to 100), Kochia (kochia (Kochia scoparia); 125 g ai/ha) | Plant response rating, Soybean (soybean (Glycine max); Preemergence, 250 g ai/ha)
10: Plant response rating, Morningglory ([2]; Preemergence, 250 g ai/ha) | Plant response rating (0 to 100), Lambsquarters ([4]; Postemergence, 62 g ai/ha) | Plant response rating, Lambsquarters [4, 11] | Plant response rating, Blackgrass ([8]; Preemergence, 31 g ai/ha) | Plant response rating (0 to 100), Crabgrass, Large ([10]; Postemergence, 125 g ai/ha) | Plant response rating, Crabgrass, Large [10, 11]
90: Plant response rating, Kochia (kochia (Kochia scoparia))
100: Plant response rating, Lambsquarters ([4]; Preemergence, 31 g ai/ha) | Plant response rating, Lambsquarters ([4]; Preemergence, 62 g ai/ha) | Plant response rating, Lambsquarters ([4]; Preemergence, 125 g ai/ha) | Plant response rating, Lambsquarters ([4]; Preemergence, 250 g ai/ha) | Plant response rating, Galium ([5]; Preemergence, 250 g ai/ha)
50: Plant response rating, Blackgrass ([8]; Preemergence, 250 g ai/ha)
80: Plant response rating (0 to 100), Chickweed ([1]; 62 g ai/ha) | Plant response rating (0 to 100), Kochia (kochia (Kochia scoparia); 62 g ai/ha) | Plant response rating, Galium ([5]; Preemergence, 62 g ai/ha)
95: Plant response rating (0 to 100), Chickweed ([1]; 31 g ai/ha) | Plant response rating, Galium ([5]; Preemergence, 125 g ai/ha)
40: Plant response rating (0 to 100), Galium ([5]; Postemergence, 62 g ai/ha) | Plant response rating (0 to 100), Galium ([5]; Postemergence, 125 g ai/ha)
98: Plant response rating (0 to 100), Chickweed ([1]; 125 g ai/ha) | Plant response rating, Chickweed [1]
0: Plant response rating (0 to 100), Oat, Wild (wild oat (Avena fatua); 62 g ai/ha) | Plant response rating (0 to 100), Oat, Wild (wild oat (Avena fatua); 125 g ai/ha) | Plant response rating, Oat, Wild (wild oat (Avena fatua)) | Plant response rating (0 to 100), Morningglory ([2]; Postemergence, 62 g ai/ha) | Plant response rating (0 to 100), Morningglory ([2]; Postemergence, 125 g ai/ha) | Plant response rating, Morningglory [2, 11] | Plant response rating, Morningglory ([2]; Preemergence, 31 g ai/ha) | Plant response rating, Morningglory ([2]; Preemergence, 62 g ai/ha) | Plant response rating, Morningglory ([2]; Preemergence, 125 g ai/ha) | Plant response rating (0 to 100), Foxtail, Giant ([3]; Postemergence, 31 g ai/ha) | Plant response rating (0 to 100), Foxtail, Giant ([3]; Postemergence, 62 g ai/ha) | Plant response rating, Foxtail, Giant ([3]; Preemergence, 31 g ai/ha) | Plant response rating, Foxtail, Giant ([3]; Preemergence, 62 g ai/ha) | Plant response rating, Foxtail, Giant ([3]; Preemergence, 125 g ai/ha) | Plant response rating, Foxtail, Giant ([3]; Preemergence, 250 g ai/ha) | Plant response rating (0 to 100), Soybean (soybean (Glycine max); Postemergence, 62 g ai/ha) | Plant response rating (0 to 100), Soybean (soybean (Glycine max); Postemergence, 125 g ai/ha) | Plant response rating, Soybean (soybean (Glycine max); [11]) | Plant response rating, Soybean (soybean (Glycine max); Preemergence, 62 g ai/ha) | Plant response rating, Soybean (soybean (Glycine max); Preemergence, 125 g ai/ha) | Plant response rating, Galium ([5]; Preemergence, 31 g ai/ha) | Plant response rating (0 to 100), Johnsongrass ([6]; Postemergence, 62 g ai/ha) | Plant response rating (0 to 100), Johnsongrass ([6]; Postemergence, 125 g ai/ha) | Plant response rating, Johnsongrass [6, 11] | Plant response rating, Johnsongrass ([6]; Preemergence, 31 g ai/ha) | Plant response rating, Johnsongrass ([6]; Preemergence, 62 g ai/ha) | Plant response rating, Johnsongrass ([6]; Preemergence, 125 g ai/ha) | Plant response rating, Johnsongrass ([6]; Preemergence, 250 g ai/ha) | Plant response rating (0 to 100), Wheat ([7]; Postemergence, 62 g ai/ha) | Plant response rating (0 to 100), Wheat ([7]; Postemergence, 125 g ai/ha) | Plant response rating, Wheat [7, 11] | Plant response rating, Wheat ([7]; Preemergence, 62 g ai/ha) | Plant response rating, Wheat ([7]; Preemergence, 125 g ai/ha) | Plant response rating, Wheat ([7]; Preemergence, 250 g ai/ha) | Plant response rating (0 to 100), Blackgrass ([8]; Postemergence, 31 g ai/ha) | Plant response rating (0 to 100), Blackgrass ([8]; Postemergence, 62 g ai/ha) | Plant response rating, Blackgrass ([8]; Postemergence, 125 g ai/ha, scale 0 to 100) | Plant response rating, Blackgrass [8, 11] | Plant response rating, Blackgrass ([8]; Preemergence, 62 g ai/ha) | Plant response rating, Blackgrass ([8]; Preemergence, 125 g ai/ha) | Plant response rating, Nutsedge, Yellow ([9]; Preemergence, 31 g ai/ha) | Plant response rating, Nutsedge, Yellow ([9]; Preemergence, 62 g ai/ha) | Plant response rating, Nutsedge, Yellow ([9]; Preemergence, 125 g ai/ha) | Plant response rating, Nutsedge, Yellow ([9]; Preemergence, 250 g ai/ha) | Plant response rating (0 to 100), Crabgrass, Large ([10]; Postemergence, 31 g ai/ha) | Plant response rating (0 to 100), Crabgrass, Large ([10]; Postemergence, 62 g ai/ha) | Plant response rating, Crabgrass, Large ([10]; Preemergence, 31 g ai/ha) | Plant response rating, Crabgrass, Large ([10]; Preemergence, 62 g ai/ha) | Plant response rating, Crabgrass, Large ([10]; Preemergence, 125 g ai/ha) | Plant response rating, Crabgrass, Large ([10]; Preemergence, 250 g ai/ha)

C=CCn1cc(C(=O)c2ccccc2)c(-c2cc(Cl)cc(Cl)c2)n1 [Compound 60]
20: Plant response rating (0 to 100), Kochia (kochia (Kochia scoparia); 125 g ai/ha)
60: Plant response rating, Lambsquarters [4, 11]
75: Plant response rating (0 to 100), Chickweed ([1]; 31 g ai/ha)
10: Plant response rating (0 to 100), Kochia (kochia (Kochia scoparia); 62 g ai/ha)
5: Plant response rating (0 to 100), Foxtail, Giant ([3]; Postemergence, 62 g ai/ha) | Plant response rating (0 to 100), Foxtail, Giant ([3]; Postemergence, 125 g ai/ha) | Plant response rating, Foxtail, Giant [3, 11] | Plant response rating (0 to 100), Soybean (soybean (Glycine max); Postemergence, 62 g ai/ha) | Plant response rating (0 to 100), Soybean (soybean (Glycine max); Postemergence, 125 g ai/ha) | Plant response rating, Soybean (soybean (Glycine max); [11]) | Plant response rating (0 to 100), Lambsquarters ([4]; Postemergence, 62 g ai/ha) | Plant response rating (0 to 100), Johnsongrass ([6]; Postemergence, 125 g ai/ha) | Plant response rating, Johnsongrass [6, 11] | Plant response rating (0 to 100), Crabgrass, Large ([10]; Postemergence, 125 g ai/ha) | Plant response rating, Crabgrass, Large [10, 11]
100: Plant response rating (0 to 100), Chickweed ([1]; 125 g ai/ha) | Plant response rating, Chickweed [1]
55: Plant response rating, Kochia (kochia (Kochia scoparia))
40: Plant response rating (0 to 100), Lambsquarters ([4]; Postemergence, 125 g ai/ha)
0: Plant response rating (0 to 100), Oat, Wild (wild oat (Avena fatua); 62 g ai/ha) | Plant response rating (0 to 100), Oat, Wild (wild oat (Avena fatua); 125 g ai/ha) | Plant response rating, Oat, Wild (wild oat (Avena fatua)) | Plant response rating (0 to 100), Morningglory ([2]; Postemergence, 62 g ai/ha) | Plant response rating (0 to 100), Morningglory ([2]; Postemergence, 125 g ai/ha) | Plant response rating, Morningglory [2, 11] | Plant response rating (0 to 100), Foxtail, Giant ([3]; Postemergence, 31 g ai/ha) | Plant response rating (0 to 100), Galium ([5]; Postemergence, 31 g ai/ha) | Plant response rating (0 to 100), Galium ([5]; Postemergence, 62 g ai/ha) | Plant response rating (0 to 100), Galium ([5]; Postemergence, 125 g ai/ha) | Plant response rating, Galium [5, 11] | Plant response rating (0 to 100), Johnsongrass ([6]; Postemergence, 62 g ai/ha) | Plant response rating (0 to 100), Wheat ([7]; Postemergence, 62 g ai/ha) | Plant response rating (0 to 100), Wheat ([7]; Postemergence, 125 g ai/ha) | Plant response rating, Wheat [7, 11] | Plant response rating (0 to 100), Blackgrass ([8]; Postemergence, 31 g ai/ha) | Plant response rating (0 to 100), Blackgrass ([8]; Postemergence, 62 g ai/ha) | Plant response rating (0 to 100), Blackgrass ([8]; Postemergence, 125 g ai/ha) | Plant response rating, Blackgrass [8, 11] | Plant response rating (0 to 100), Nutsedge, Yellow ([9]; Postemergence, 62 g ai/ha) | Plant response rating (0 to 100), Nutsedge, Yellow ([9]; Postemergence, 125 g ai/ha) | Plant response rating, Nutsedge, Yellow [9, 11] | Plant response rating (0 to 100), Crabgrass, Large ([10]; Postemergence, 31 g ai/ha) | Plant response rating (0 to 100), Crabgrass, Large ([10]; Postemergence, 62 g ai/ha)
